Measurements taken from patent publication US20070128217A1 (priority 2003, published 2007).

How the values were obtained:
[1] = tested on: antibodies in sera from SARS patients (sera 1a, 1b, 2, 6, 37, 62, London, SARS-yellow, SARS-green); type: binding, human; set-up: Binding of serum 6 to linear peptides of protein X1 of SARS-CoV Urbani / Binding of serum 37 to linear peptides of protein X1 of SARS-CoV Urbani / Binding of serum 6 to looped/cyclic peptide (PEPSCAN-ELISA) / Binding of serum 37 to looped/cyclic peptide (PEPSCAN-ELISA) / Binding of serum 37 to looped/cyclic peptides of protein X1 of SARS-CoV Urbani / Binding of serum 6 to linear peptides of protein X2 / Binding of serum 37 to linear peptides of protein X2 / Binding of serum 37 to looped/cyclic peptides of protein X2 of SARS-CoV Urbani / Binding of serum 6 to linear peptides of protein M of SARS-CoV Urbani / Binding of serum 37 to linear peptides of protein M of SARS-CoV Urbani / Binding of serum 6 to looped/cyclic peptides of protein M of SARS-CoV Urbani / Binding of serum 37 to looped/cyclic peptides of protein M of SARS-CoV Urbani / Binding of serum 6 to linear peptides of protein X3 of SARS-CoV Urbani / Binding of serum 37 to linear peptides of protein X3 of SARS-CoV Urbani / Binding of serum 37 to looped/cyclic peptides of protein X3 of SARS-CoV Urbani / Binding of serum 6 to linear peptides of protein X4 of SARS-CoV Urbani / Binding of serum 37 to linear peptides of protein X4 of SARS-CoV Urbani / Binding of serum 37 to looped/cyclic peptides of protein X4 of SARS-CoV Urbani / Binding of serum 6 to linear peptides of protein X5 of SARS-CoV Urbani / Binding of serum 37 to linear peptides of protein X5 of SARS-CoV Urbani / Binding of serum 37 to looped/cyclic peptides of protein X5 of SARS-CoV Urbani / Binding of serum 6 to linear peptides of protein N of SARS-CoV Urbani / Binding of serum 37 to linear peptides of protein N of SARS-CoV Urbani / Binding of serum 6 to linear peptide (PEPSCAN-ELISA) / Binding of serum 1a to looped/cyclic peptides of protein N of SARS-CoV Urbani / Binding of serum 1b to looped/cyclic peptides of protein N of SARS-CoV Urbani / Binding of serum 2 to looped/cyclic peptides of protein N of SARS-CoV Urbani / Binding of serum 6 to looped/cyclic peptides of protein N of SARS-CoV Urbani / Binding of serum 37 to looped/cyclic peptides of protein N of SARS-CoV Urbani / Binding of serum 62 to looped/cyclic peptides of protein N of SARS-CoV Urbani / Binding of serum London to looped/cyclic peptides of protein N of SARS-CoV Urbani / Binding of serum SARS-green to looped/cyclic peptides of protein N of SARS-CoV Urbani: unit not given here
[2] = tested on: control sera (pooled serum of ten healthy LUMC hospital workers; commercial negative donor pooled serum from the Dutch bloodbank); type: binding, human; set-up: Binding of Control serum LUMC to linear peptides / Binding of Control serum Blood-bank to linear peptides / Binding of Control serum LUMC to looped peptides / Binding of Control Serum Blood-Bank to Looped peptides / Binding of Control serum LUMC to linear peptides of the protein M of SARS-CoV Urbani / Binding of Control serum Blood-bank to linear peptides of the protein M of SARS-CoV Urbani / Binding of Control serum LUMC to looped peptides of the protein M of SARS-CoV Urbani / Binding of Control Serum Blood-Bank to Looped peptides of the protein M of SARS-CoV Urbani: unit not given here
[3] = tested on: rabbit serum obtained by immunizing a rabbit with the SARS-CoV strain Frankfurt 1; type: binding; set-up: Binding of a rabbit serum to linear peptides / Binding of a rabbit serum to looped peptides / Rabbit serum linear peptides / Rabbit serum looped peptides / Binding of a rabbit serum to linear peptides of protein N of SARS-CoV Urbani (Rabbit serum linear peptides) / Binding of a rabbit serum to looped/cyclic peptides of protein N of SARS-CoV Urbani (Rabbit serum looped peptides): unit not given here

AVYRINWVTGGIAIA
Binding of serum 1a to linear peptides of protein M of SARS-CoV Urbani [1]: 0.7 | Binding of serum 1a to looped/cyclic peptides of protein M of SARS-CoV Urbani [1]: 0.8 | Binding of serum 1b to linear peptides of protein M of SARS-CoV Urbani [1]: 0.6 | Binding of serum 1b to looped/cyclic peptides of protein M of SARS-CoV Urbani [1]: 0.4 | Binding of serum 2 to linear peptides of protein M of SARS-CoV Urbani [1]: 0.6 | Binding of serum 2 to looped/cyclic peptides of protein M of SARS-CoV Urbani [1]: 0.6 | Binding of serum 6 to linear peptides of protein M of SARS-CoV Urbani [1]: 0.2 | Binding of serum 6 to looped/cyclic peptides of protein M of SARS-CoV Urbani [1]: 0.6 | Binding of serum 37 to linear peptides of protein M of SARS-CoV Urbani [1]: 0.8 | Binding of serum 37 to looped/cyclic peptides of protein M of SARS-CoV Urbani [1]: 0.7 | Binding of serum 62 to linear peptides of protein M of SARS-CoV Urbani [1]: 0.8 | Binding of serum 62 to looped/cyclic peptides of protein M of SARS-CoV Urbani [1]: 0.7 | Binding of serum London to linear peptides of protein M of SARS-CoV Urbani [1]: 0.3 | Binding of serum London to looped/cyclic peptides of protein M of SARS-CoV Urbani [1]: 0.2 | Binding of serum SARS-green to linear peptides of protein M of SARS-CoV Urbani [1]: 0.3 | Binding of serum SARS-green to looped/cyclic peptides of protein M of SARS-CoV Urbani [1]: 0.4 | Binding of serum SARS-yellow to linear peptides of protein M of SARS-CoV Urbani [1]: 0.1 | Binding of serum SARS-yellow to looped/cyclic peptides of protein M of SARS-CoV Urbani [1]: 0.7 | Binding of Control Serum Blood-Bank to Looped peptides of the protein M of SARS-CoV Urbani [2]: 0.8 | Binding of Control serum Blood-bank to linear peptides of the protein M of SARS-CoV Urbani [2]: 0.7 | Binding of Control serum LUMC to linear peptides of the protein M of SARS-CoV Urbani [2]: 0.5 | Binding of Control serum LUMC to looped peptides of the protein M of SARS-CoV Urbani [2]: 0.8 | Rabbit serum linear peptides [3]: 0.4 | Rabbit serum looped peptides [3]: 0.5

AWIMLLQFAYSNRNR
Binding of serum 1a to linear peptides of protein M of SARS-CoV Urbani [1]: 0.7 | Binding of serum 1a to looped/cyclic peptides of protein M of SARS-CoV Urbani [1]: 0.7 | Binding of serum 1b to linear peptides of protein M of SARS-CoV Urbani [1]: 0.6 | Binding of serum 1b to looped/cyclic peptides of protein M of SARS-CoV Urbani [1]: 0.7 | Binding of serum 2 to linear peptides of protein M of SARS-CoV Urbani [1]: 0.5 | Binding of serum 2 to looped/cyclic peptides of protein M of SARS-CoV Urbani [1]: 0.6 | Binding of serum 6 to linear peptides of protein M of SARS-CoV Urbani [1]: 0.5 | Binding of serum 6 to looped/cyclic peptides of protein M of SARS-CoV Urbani [1]: 1.1 | Binding of serum 37 to linear peptides of protein M of SARS-CoV Urbani [1]: 0.4 | Binding of serum 37 to looped/cyclic peptides of protein M of SARS-CoV Urbani [1]: 0.6 | Binding of serum 62 to linear peptides of protein M of SARS-CoV Urbani [1]: 0.4 | Binding of serum 62 to looped/cyclic peptides of protein M of SARS-CoV Urbani [1]: 0.6 | Binding of serum London to linear peptides of protein M of SARS-CoV Urbani [1]: 0.3 | Binding of serum London to looped/cyclic peptides of protein M of SARS-CoV Urbani [1]: 0.6 | Binding of serum SARS-green to linear peptides of protein M of SARS-CoV Urbani [1]: 0.6 | Binding of serum SARS-green to looped/cyclic peptides of protein M of SARS-CoV Urbani [1]: 0.4 | Binding of serum SARS-yellow to linear peptides of protein M of SARS-CoV Urbani [1]: 0.2 | Binding of serum SARS-yellow to looped/cyclic peptides of protein M of SARS-CoV Urbani [1]: 0.7 | Binding of Control Serum Blood-Bank to Looped peptides of the protein M of SARS-CoV Urbani [2]: 0.7 | Binding of Control serum Blood-bank to linear peptides of the protein M of SARS-CoV Urbani [2]: 0.7 | Binding of Control serum LUMC to linear peptides of the protein M of SARS-CoV Urbani [2]: 0.5 | Binding of Control serum LUMC to looped peptides of the protein M of SARS-CoV Urbani [2]: 0.7 | Rabbit serum linear peptides [3]: 0.3 | Rabbit serum looped peptides [3]: 0.4

AWLCALGKVLPFHRW
Binding of serum 1a to linear peptides of protein X5 of SARS-CoV Urbani [1]: 0.8 | Binding of serum 1a to looped/cyclic peptides of protein X5 of SARS-CoV Urbani [1]: 0.4 | Binding of serum 1b to linear peptides of protein X5 of SARS-CoV Urbani [1]: 0.6 | Binding of serum 1b to looped/cyclic peptides of protein X5 of SARS-CoV Urbani [1]: 0.3 | Binding of serum 2 to linear peptides of protein X5 of SARS-CoV Urbani [1]: 0.8 | Binding of serum 2 to looped/cyclic peptides of protein X5 of SARS-CoV Urbani [1]: 0.5 | Binding of serum 6 to linear peptides of protein X5 of SARS-CoV Urbani [1]: 0.6 | Binding of serum 6 to looped/cyclic peptides of protein X5 of SARS-CoV Urbani [1]: 0.4 | Binding of serum 37 to linear peptides of protein X5 of SARS-CoV Urbani [1]: 0.8 | Binding of serum 37 to looped/cyclic peptides of protein X5 of SARS-CoV Urbani [1]: 0.5 | Binding of serum 62 to linear peptides of protein X5 of SARS-CoV Urbani [1]: 0.9 | Binding of serum 62 to looped/cyclic peptides of protein X5 of SARS-CoV Urbani [1]: 0.7 | Binding of serum London to linear peptides of protein X5 of SARS-CoV Urbani [1]: 0.8 | Binding of serum London to looped/cyclic peptides of protein X5 of SARS-CoV Urbani [1]: 0.2 | Binding of serum SARS-green to linear peptides of protein X5 of SARS-CoV Urbani [1]: 0.6 | Binding of serum SARS-green to looped/cyclic peptides of protein X5 of SARS-CoV Urbani [1]: 0.5 | Binding of serum SARS-yellow to linear peptides of protein X5 of SARS-CoV Urbani [1]: 0.2 | Binding of serum SARS-yellow to looped/cyclic peptides of protein X5 of SARS-CoV Urbani [1]: 0.5 | Binding of Control Serum Blood-Bank to Looped peptides [2]: 0.4 | Binding of Control serum Blood-bank to linear peptides [2]: 0.9 | Binding of Control serum LUMC to linear peptides [2]: 0.6 | Binding of Control serum LUMC to looped peptides [2]: 0.5 | Rabbit serum linear peptides [3]: 0.8 | Rabbit serum looped peptides [3]: 0.6

AYNRYRIGNYKLNTD
Binding of serum 1a to linear peptides of protein M of SARS-CoV Urbani [1]: 0.7 | Binding of serum 1a to looped/cyclic peptides of protein M of SARS-CoV Urbani [1]: 0.8 | Binding of serum 1b to linear peptides of protein M of SARS-CoV Urbani [1]: 0.2 | Binding of serum 1b to looped/cyclic peptides of protein M of SARS-CoV Urbani [1]: 0.7 | Binding of serum 2 to linear peptides of protein M of SARS-CoV Urbani [1]: 0.3 | Binding of serum 2 to looped/cyclic peptides of protein M of SARS-CoV Urbani [1]: 0.5 | Binding of serum 6 to linear peptides of protein M of SARS-CoV Urbani [1]: 0.4 | Binding of serum 6 to looped/cyclic peptides of protein M of SARS-CoV Urbani [1]: 1.0 | Binding of serum 37 to linear peptides of protein M of SARS-CoV Urbani [1]: 0.5 | Binding of serum 37 to looped/cyclic peptides of protein M of SARS-CoV Urbani [1]: 0.6 | Binding of serum 62 to linear peptides of protein M of SARS-CoV Urbani [1]: 0.7 | Binding of serum 62 to looped/cyclic peptides of protein M of SARS-CoV Urbani [1]: 0.6 | Binding of serum London to linear peptides of protein M of SARS-CoV Urbani [1]: 0.5 | Binding of serum London to looped/cyclic peptides of protein M of SARS-CoV Urbani [1]: 0.4 | Binding of serum SARS-green to linear peptides of protein M of SARS-CoV Urbani [1]: 0.2 | Binding of serum SARS-green to looped/cyclic peptides of protein M of SARS-CoV Urbani [1]: 0.2 | Binding of serum SARS-yellow to linear peptides of protein M of SARS-CoV Urbani [1]: 0.0 | Binding of serum SARS-yellow to looped/cyclic peptides of protein M of SARS-CoV Urbani [1]: 0.6 | Binding of Control Serum Blood-Bank to Looped peptides of the protein M of SARS-CoV Urbani [2]: 0.6 | Binding of Control serum Blood-bank to linear peptides of the protein M of SARS-CoV Urbani [2]: 0.6 | Binding of Control serum LUMC to linear peptides of the protein M of SARS-CoV Urbani [2]: 0.3 | Binding of Control serum LUMC to looped peptides of the protein M of SARS-CoV Urbani [2]: 0.7 | Rabbit serum linear peptides [3]: 0.3 | Rabbit serum looped peptides [3]: 0.3
